# Experimental data as given in patent US9096615B2, “Bridged bicyclic amino thiazine dioxide compounds as inhibitors of beta-secretase and methods of use thereof” (AMGEN INC., priority 2013, dated 2015).
# Where two headings read alike, the source gives them in different places.
# Assays:
# [1] = biological target: BACE1 (Homo sapiens, UniProt P56817); assay: In vitro enzymatic BACE FRET assay; type: biochemical
# Procedure: In Vitro Enzymatic BACE FRET (Fluorescence Resonance Energy Transfer) Assay
# Enzyme Assay Data in the Example Table I
# The assay buffer used in this screen is 0.05 M acetate, pH 4.2, 10% DMSO final, 100 uM genapol (which is a nonionic detergent, below its Critical Micelle Concentration). The Beta Secretase enzyme (0.2 nM) is pre-incubated for one hour with inhibitors, typically in about 1 uL of DMSO according to a serial dilution, are added thereto. This assay is effectively started by the addition of FRET substrate (50 nM) and the combination is incubated for one hour. The FRET assay is terminated with by addition of Tris buffer, which raises the pH to neutrality, and the fluorescence is determined. The FRET substrate is a peptide with commercially available fluorophore and quencher, on opposite sides of the BACE cleavage site. Proteolytic cleavage of the FRET substrate releases quenching of fluorescence (excitation 488 nm and […]).
# [2] = test system: Aβ40 in conditioned medium of cells stably expressing Amyloid Precursor Protein (APP); assay: In vitro BACE cell-based assay (HEK cell assay, Aβ40 sandwich ELISA); conditions: Homo sapiens, HEK293
# Procedure: In Vitro BACE Cell-Based Assay
# The cell-based assay measures inhibition or reduction of Aβ40 in conditioned medium of test compound treated cells expressing amyloid precursor protein.
# Cells stably expressing Amyloid Precursor Protein (APP) were plated at a density of 40K cells/well in 96 well plates (Costar). The cells were cultivated for 24 hours at 37° C. and 5% CO2 in DMEM supplemented with 10% FBS. The test compounds were then added to cells in 10-point dose response concentrations with the starting concentration being either 100 μM or 10 μM. The compounds were diluted from stock solutions in DMSO and the final DMSO concentration of the test compounds on cells was 0.1%. After 24 h of incubation with the test compounds the supernatant conditioned media was collected and the Aβ 40 levels were determined using a sandwich ELISA. The IC50 of the compound was calculated from the percent of control or percent inhibition of Aβ 40 as a function of the concentration of the test compound.
# The sandwich ELISA to detect Aβ 40 was performed in 96 well microtiter plates, which were pre-treated with goat anti-rabbit IgG (Pierce). The capture and detecting antibody pair that were used to detect Aβ 40 from cell supernatants were affinity purified pAb40 (Biosource) and biotinylated 6E10 (Signet Labs Inc.), respectively. The optimal concentration for the pAb40 antibody was 3 μg/ml in Superblock/TBS (Pierce) that was supplemented with 0.05% Tween 20 (Sigma). Optimal concentration for the detection antibody 6E10-biotinylated was 0.5 μg/ml in Superblock/TBS (Pierce) that had been supplemented with 2% normal goat serum and 2% normal mouse serum.
# Cellular supernatants were incubated with the capture antibody for 3 h at 4° C., followed by 3 wash steps in TBS-tween (0.05%). The detecting antibody incubation was for 2 h at 4° C., again followed by the wash steps as described previously. The final readout of the ELISA is Time-Resolved Fluorescence (counts per minute) using Delfia reagents Streptavidin-Europium and Enhancement solutions (Perkin Elmer) and the Victor 2 multilabel counter (Perkin Elmer).
# [3] = biological target: T1, Cathepsin D (Cat D) (Homo sapiens, UniProt P07339); assay: In vitro enzymatic Cathepsin D (Cat D) FRET assay; type: biochemical; conditions: read-out: CatD IC50
# T1 construct: made in house; host or cells: CHO cells
# T1 sequence (P07339 65-412, species assumed): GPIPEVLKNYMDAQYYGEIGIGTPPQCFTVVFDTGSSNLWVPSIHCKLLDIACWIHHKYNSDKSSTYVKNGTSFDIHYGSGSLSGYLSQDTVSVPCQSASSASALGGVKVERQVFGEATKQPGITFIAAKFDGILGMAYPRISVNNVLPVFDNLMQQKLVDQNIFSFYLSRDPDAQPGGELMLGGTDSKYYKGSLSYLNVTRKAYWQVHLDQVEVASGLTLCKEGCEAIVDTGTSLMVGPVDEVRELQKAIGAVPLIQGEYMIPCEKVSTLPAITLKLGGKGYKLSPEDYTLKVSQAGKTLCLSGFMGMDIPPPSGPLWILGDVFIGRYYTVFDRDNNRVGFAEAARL
# Procedure: In Vitro Enzymatic Cathepsin D (Cat D) FRET (Fluorescence Resonance Energy Transfer) Assay
# Recombinant Cat D was expressed in CHO cells. The assay buffer for CathepsinD is 0.05 M citrate pH 3.5, 10% DMSO final, 5 mM CHAPS. The Cat D enzyme (9 nM) is pre-incubated for one hour with inhibitors, typically in about 1 uL of DMSO according to a serial dilution, is added thereto. The assays are effectively started by the addition of different FRET substrates (20 nM for Cat D) and the combination is incubated for one hour. The FRET assay is terminated with by addition of Tris buffer, which raises the pH to neutrality, and the fluorescence is determined. The FRET substrate is a peptide with commercially available fluorophore and quencher, on opposite sides of the BACE cleavage site. The Cat D substrate peptide sequence is based on sequence #1 of Table 1 from Gulnik et al. FEBS Letters v413 p 379-384 1997. Proteolytic cleavage of the FRET substrate releases quenching of fluorescence (Cat D excitation 500 nm and emission 580 nm). […]
# Where available, the in-vitro Cat D FRET assay data for each of the Examples, conducted by the first procedure, is provided in Tables 1 and 3. For example, the compound of example 28 has a Cat D IC50 value of >400 uM.
# [4] = average IC50, read-out: BACE1 Enzyme assay IC50
# [5] = average IC50, read-out: BACE1 cell assay IC50
# [6] = read-out: BACE1 FRET assay IC50
# [7] = Aβ40, 24 h incubation, read-out: HEK cell assay IC50
# BACE1, sequence (P56817 46-501, species assumed): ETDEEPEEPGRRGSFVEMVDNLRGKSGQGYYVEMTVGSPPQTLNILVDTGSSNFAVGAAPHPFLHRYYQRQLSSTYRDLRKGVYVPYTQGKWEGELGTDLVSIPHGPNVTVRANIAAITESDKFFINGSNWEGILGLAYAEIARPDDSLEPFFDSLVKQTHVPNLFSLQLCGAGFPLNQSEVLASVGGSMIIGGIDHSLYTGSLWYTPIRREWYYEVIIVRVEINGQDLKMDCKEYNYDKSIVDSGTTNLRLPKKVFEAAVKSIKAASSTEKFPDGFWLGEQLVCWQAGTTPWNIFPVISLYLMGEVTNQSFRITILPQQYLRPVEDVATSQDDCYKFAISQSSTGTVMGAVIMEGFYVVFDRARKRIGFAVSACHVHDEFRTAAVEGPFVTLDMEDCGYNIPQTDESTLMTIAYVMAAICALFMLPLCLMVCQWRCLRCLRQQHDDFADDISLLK
Compound,"IC50 [1, 4]","IC50 [2, 5]","IC50 ([3]; average IC50, first procedure)","IC50 [1, 6]","IC50 [2, 7]",IC50 [3]
"COc1cnc2c(Nc3ccc(F)c([C@@]4(C)N=C(N)[C@@]5(CF)CC[C@@H]4S5(=O)=O)c3)ncc(F)c2c1 [Example 99, N-(3-((1S,2R,5R)-4-amino-5-(fluoromethyl)-2-methyl-8,8-dioxido-8-thia-3-azabicyclo[3.2.1]oct-3-en-2-yl)-4-fluorophenyl)-5-fluoro-3-methoxy-1,7-naphthyridin-8-amine]",6 nM,28 nM,317 µM,–,–,–
"COc1ccc(C(=O)Nc2ccc(F)c([C@@]3(C)N=C(N)[C@]4(C)CC[C@H]3S4(=O)=O)c2)c(F)c1 [Example 124, N-(3-((1R,2R,5S)-4-amino-2,5-dimethyl-8,8-dioxido-8-thia-3-azabicyclo[3.2.1]oct-3-en-2-yl)-4-fluorophenyl)-2-fluoro-4-methoxybenzamide]",588 nM,103 nM,4440 µM,–,–,–
"Cc1cc(OC(F)F)cnc1C(=O)Nc1ccc(F)c([C@@]2(C)N=C(N)[C@]3(C)CCC[C@H]2S3(=O)=O)c1 [Example 6, N-(3-((1R,2R,5S)-4-Amino-2,5-dimethyl-9,9-dioxido-9-thia-3-azabicyclo[3.3.1]non-3-en-2-yl)-4-fluorophenyl)-5-(difluoromethoxy)-3-methylpicolinamide]",–,–,–,10 nM,4 nM,215 µM
"C[C@]1(c2cc(Nc3ncc(F)c4cc(O)cnc34)ccc2F)N=C(N)[C@@]2(C)CC[C@@H]1S2(=O)=O [Example 39, (1R,4R,5S)-2-amino-4-(2-fluoro-5-((5-fluoro-3-hydroxy-1,7-naphthyridin-8-yl)amino)phenyl)-1,4-dimethyl-8-thia-3-azabicyclo[3.2.1]oct-2-ene 8,8-dioxide]",1 nM,9 nM,191 µM,–,–,–
"COC[C@]12CC[C@H]([C@@](C)(c3cc(NC(=O)c4ncc(Cl)cc4C)ccc3F)N=C1N)S2(=O)=O [Example 142, N-(3-((1R,2R,5S)-4-amino-5-(methoxymethyl)-2-methyl-8,8-dioxido-8-thia-3-azabicyclo[3.2.1]oct-3-en-2-yl)-4-fluorophenyl)-5-chloro-3-methyl-2-pyridinecarboxamide]",93 nM,482 nM,> 400 µM,–,–,–
"CC(C)COc1cnc2c(Nc3ccc(F)c([C@@]4(C)N=C(N)[C@@]5(C)CC[C@@H]4S5(=O)=O)c3)nccc2n1 [Example 143, N-(3-((1S,2R,5R)-4-amino-2,5-dimethyl-8,8-dioxido-8-thia-3-azabicyclo[3.2.1]oct-3-en-2-yl)-4-fluorophenyl)-2-(2-methylpropoxy)pyrido[3,4-b]pyrazin-5-amine]",9 nM,164 nM,150 µM,–,–,–
"C[C@]12CC[C@H]([C@@](C)(c3cc(Nc4ncc(F)c5cc(OCC6CC6)cnc45)ccc3F)N=C1N)S2(=O)=O [Example 136, N-(3-((1R,2R,5S)-4-amino-2,5-dimethyl-8,8-dioxido-8-thia-3-azabicyclo[3.2.1]oct-3-en-2-yl)-4-fluorophenyl)-3-(cyclopropylmethoxy)-5-fluoro-1,7-naphthyridin-8-amine]",61 nM,253 nM,5340 µM,–,–,–
"C[C@]1(c2cc(NC(=O)c3ccc(C#N)cn3)ccc2F)N=C(N)[C@@]2(CF)CC[C@@H]1S2(=O)=O [Example 111, N-(3-((1S,2R,5R)-4-amino-5-(fluoromethyl)-2-methyl-8,8-dioxido-8-thia-3-azabicyclo[3.2.1]oct-3-en-2-yl)-4-fluorophenyl)-5-cyano-2-pyridinecarboxamide]",2 nM,4 nM,957 µM,–,–,–
"C[C@]12CC[C@H]([C@@](C)(c3cc(NC(=O)c4ccc(C#CC5CC5)cn4)ccc3F)N=C1N)S2(=O)=O [Example 65, N-(3-((1R,2R,5S)-4-amino-2,5-dimethyl-8,8-dioxido-8-thia-3-azabicyclo[3.2.1]oct-3-en-2-yl)-4-fluorophenyl)-5-(cyclopropylethynyl)-2-pyridinecarboxamide]",7 nM,16 nM,> 400 µM,–,–,–
"Cc1cc(OC(F)F)cnc1C(=O)Nc1ccc(F)c([C@@]2(C)N=C(N)[C@]3(C)CCC[C@@]2(C)S3(=O)=O)c1 [Example 14, N-(3-((1R,2R,5S)-4-Amino-1,2,5-trimethyl-9,9-dioxido-9-thia-3-azabicyclo[3.3.1]non-3-en-2-yl)-4-fluorophenyl)-5-(difluoromethoxy)-3-methylpicolinamide]",–,–,–,9 nM,2 nM,17.7 µM
"Cc1cc(C(F)(F)F)cnc1C(=O)Nc1ccc(F)c([C@@]2(CF)N=C(N)[C@@]3(C)CC[C@@H]2S3(=O)=O)c1 (single isomer, unassigned) [Example 114]",61 nM,82 nM,3460 µM,–,–,–
"C[C@]12CC[C@H]([C@@](C)(c3cc(NC(=O)c4ccc(C(F)(F)F)cc4F)ccc3F)N=C1N)S2(=O)=O [Example 122, N-(3-((1R,2R,5S)-4-amino-2,5-dimethyl-8,8-dioxido-8-thia-3-azabicyclo[3.2.1]oct-3-en-2-yl)-4-fluorophenyl)-2-fluoro-4-(trifluoromethyl)benzamide]",905 nM,255 nM,> 400 µM,–,–,–
"COc1cnc2c(Nc3ccc(F)c([C@@]4(C)N=C(N)[C@@]5(C)CCC[C@@H]4S5(=O)=O)c3)nccc2n1 [Example 1, (1R,4R,5S)-2-Amino-4-(2-fluoro-5-((2-methoxypyrido[3,4-b]pyrazin-5-yl)amino)phenyl)-1,4-dimethyl-9-thia-3-azabicyclo[3.3.1]non-2-ene 9,9-dioxide]",–,–,–,37 nM,57 nM,45.8 µM
"COc1cnc(C(=O)Nc2ccc(F)c([C@@]3(C)N=C(N)[C@@]4(C)CCC[C@]3(C)S4(=O)=O)c2)cn1 [Example 15, N-(3-((1S,2R,5R)-4-Amino-1,2,5-trimethyl-9,9-dioxido-9-thia-3-azabicyclo[3.3.1]non-3-en-2-yl)-4-fluorophenyl)-5-methoxypyrazine-2-carboxamide]",–,–,–,49 nM,27 nM,138 µM
"Cc1cc(OC(F)F)cnc1C(=O)Nc1ccc(F)c([C@@]2(C)N=C(N)[C@@H]3CCC[C@H]2S3(=O)=O)c1 [Example 18, N-(3-((1R,2R,5S)-4-Amino-2-methyl-9,9-dioxido-9-thia-3-azabicyclo[3.3.1]non-3-en-2-yl)-4-fluorophenyl)-5-(difluoromethoxy)-3-methylpicolinamide]",–,–,–,43 nM,18 nM,690 µM
"CCc1ccc(C(=O)Nc2ccc(F)c([C@@]3(C)N=C(N)[C@@]4(CF)CC[C@@H]3S4(=O)=O)c2)nc1 [Example 101, N-(3-((1S,2R,5R)-4-amino-5-(fluoromethyl)-2-methyl-8,8-dioxido-8-thia-3-azabicyclo[3.2.1]oct-3-en-2-yl)-4-fluorophenyl)-5-ethyl-2-pyridinecarboxamide]",26 nM,12 nM,1850 µM,–,–,–
